Test results published in US20140206608A1 (priority 2012, published 2014).
≈ marks a conversion by molar mass, not a printed value. Read-outs that look alike come from different tables or passages of the source. *1 amine or outer side, *2 acyl side, *3 side chain or, on linkers, in order; H or OH if unused. Where a SMILES comes first, the peptide text is derived from it. Side-chain parts run from the residue outwards. [ ]: non-standard residue; d: D form. The star is where a group is joined. γGlu = O=C(O)[C@H](CCC(=O)[*:2])N[*:1]; Stearoyl = CCCCCCCCCCCCCCCCCC(=O)*; Aib = CC(C)(N)C(=O)O

Key:
[1] = biological target: T1, human glucagon receptor (hGLUC R) (Homo sapiens, UniProt P47871); assay: cAMP response of HEK-293 cells stably expressing human glucagon receptor (HTRF); type: cell-based; settings: EC50 hGLUC R, Table 7; cAMP formation
T1 construct: expressed in transfected cells; host or cells: HEK-293
T1 sequence (P47871 26-477): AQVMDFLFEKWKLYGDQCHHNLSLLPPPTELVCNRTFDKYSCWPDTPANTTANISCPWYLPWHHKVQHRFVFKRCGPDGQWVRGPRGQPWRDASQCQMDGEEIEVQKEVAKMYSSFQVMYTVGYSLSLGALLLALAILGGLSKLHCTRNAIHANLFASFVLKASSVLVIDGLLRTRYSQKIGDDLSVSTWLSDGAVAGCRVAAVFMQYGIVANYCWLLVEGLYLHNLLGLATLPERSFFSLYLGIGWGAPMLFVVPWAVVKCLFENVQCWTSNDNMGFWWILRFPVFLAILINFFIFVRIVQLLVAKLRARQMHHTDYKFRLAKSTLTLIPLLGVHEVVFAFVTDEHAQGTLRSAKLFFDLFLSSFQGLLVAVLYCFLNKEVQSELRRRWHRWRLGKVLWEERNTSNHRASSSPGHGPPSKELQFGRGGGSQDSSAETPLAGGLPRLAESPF
Procedure: (§1) cAMP content of cells was determined using a kit from Cisbio Corp. (cat. no. 62AM4PEC) based on HTRF (Homogenous Time Resolved Fluorescence). For preparation, cells were split into T175 culture flasks and grown overnight to near confluency in medium (DMEM/10% FBS). Medium was then removed and cells washed with PBS lacking calcium and magnesium, followed by proteinase treatment with accutase (Sigma-Aldrich cat. no. A6964). Detached cells were washed and resuspended in assay buffer (1×HBSS; 20 mM HEPES, 0.1% BSA, 2 mM IBMX) and cellular density determined. They were then diluted to 400000 cells/ml and 25 μl-aliquots dispensed into the wells of 96-well plates. For measurement, 25 μl of test compound in assay buffer was added to the wells, followed by incubation for 30 minutes at room temperature.

trypsin = assay: Enzymatic stability testing versus trypsin; type: in vitro ADME; settings: human, human recombinant trypsin, pH 8.3; % of degradation after 120 min; 2 μM peptide, 37° C.; read-out: Lability versus enzymatic degradation, Trypsin
Procedure: (§2) The reaction was stopped by addition of ethanol. The samples were analyzed by LC-MS/MS. […] The metabolic lability is given as % of degradation.

in vivo = settings: female, Gottinger, minipig, plasma, sc, 0.1 mg/kg
Procedure: Female Gottinger minipigs were dosed 0.1 mg/kg subcutaneously (s.c.). Blood samples were collected after 0.25, 0.5, 1, 2, 4, 8, 24, 32, 48, 56 and 72 hours post application. Plasma samples were analyzed after protein precipitation via liquid chromatography mass spectrometry (LC/MS). PK parameters and half-life were calculated using WinonLin Version 5.2.1 (non-compartment model).

α-chymotrypsin = assay: Enzymatic stability testing versus α-chymotrypsin; type: in vitro ADME; settings: human, human recombinant α-chymotrypsin, pH 8.3; % of degradation after 120 min; 2 μM peptide, 37° C.; read-out: Lability versus enzymatic degradation, α-Chymotrypsin
Procedure: as §2

neprilysin = neprilysin (Homo sapiens, UniProt P08473); assay: in vitro; settings: human recombinant neprilysin, pH 7.5
neprilysin, sequence (P08473 whole entry): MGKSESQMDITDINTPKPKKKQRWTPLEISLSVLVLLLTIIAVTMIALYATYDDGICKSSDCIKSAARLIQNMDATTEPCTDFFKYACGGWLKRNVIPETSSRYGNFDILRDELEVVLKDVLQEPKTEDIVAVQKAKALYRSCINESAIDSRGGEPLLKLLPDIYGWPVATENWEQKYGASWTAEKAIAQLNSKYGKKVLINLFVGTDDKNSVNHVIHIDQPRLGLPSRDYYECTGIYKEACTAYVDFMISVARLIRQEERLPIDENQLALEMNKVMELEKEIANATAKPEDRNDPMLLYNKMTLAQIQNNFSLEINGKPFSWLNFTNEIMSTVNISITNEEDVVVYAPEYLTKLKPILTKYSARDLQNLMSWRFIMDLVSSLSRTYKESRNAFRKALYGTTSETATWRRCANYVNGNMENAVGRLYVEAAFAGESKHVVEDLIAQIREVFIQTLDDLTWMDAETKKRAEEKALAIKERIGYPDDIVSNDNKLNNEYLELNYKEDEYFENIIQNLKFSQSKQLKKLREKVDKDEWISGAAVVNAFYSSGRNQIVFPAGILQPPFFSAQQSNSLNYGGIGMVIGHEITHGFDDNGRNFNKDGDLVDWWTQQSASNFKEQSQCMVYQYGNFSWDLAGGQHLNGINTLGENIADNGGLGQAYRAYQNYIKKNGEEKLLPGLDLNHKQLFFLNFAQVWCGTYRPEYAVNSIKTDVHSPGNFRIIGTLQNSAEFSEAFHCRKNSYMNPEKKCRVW
Procedure: In the experiment, GLP-1 was used as a positive control. The incubation was started by addition of the enzyme fraction to the pre-warmed buffer solution. […] The reaction was stopped by addition of ethanol. The samples were analyzed by LC-MS/MS. The percentage of biotransformation was measured by extent of depletion of the test compound in mass spectrometry. Therefore the peak area of the MRM ion signal of the 0h time point (100%) versus the incubated time points was measured. The metabolic lability is given as % of degradation.

plasmin = assay: Enzymatic stability testing versus plasmin; type: in vitro ADME; settings: human, human recombinant plasmin, pH 8.3; % of degradation after 120 min; 2 μM peptide, 37° C.; read-out: Lability versus enzymatic degradation, Plasmin
Procedure: as §2

[2] = Solubility testing in buffer systems (HPLC-UV); type: physicochemical; settings: buffer system, target concentration 1.0 mg/mL
female NMRI-mice = assay: Automated assessment of 22-hours feed intake in female NMRI-mice; type: in vivo
Procedure: Female NMRI-mice of a body weight between 20 and 30 g were used. Mice were adapted to housing conditions for at least one week and for at least one day single-caged in the assessment equipment, when basal data were recorded simultaneously. On the study day, test product was administered subcutaneously close to the lights-off phase (12 h lights off) and assessment of feed consumption was directly started afterwards. Assessment included continued monitoring over 22 hours, while data are processed as mean over every 30 min. Repetition of this procedure over several days was possible. Restriction of assessment to 22 hours was for practical reasons to allow for reweighing of animals, refilling of feed and water and drug administration between procedures. Results could be assessed as cumulated data over 22 hours or differentiated to 30 min intervals.
Statistical analyses were performed with Everstat 6.0 by two-way ANOVA on repeated measures and Dunnett's post-hoc analyses. Differences were considered statistically significant at the p<0.05 level.
Lights-off phase (dark phase) started 4 hours later.

[3] = biological target: T2, human GIP receptor (hGIP R) (Homo sapiens, UniProt P48546); assay: cAMP response of HEK-293 cells stably expressing human GIP receptor (HTRF); type: cell-based
T2 construct: expressed in transfected cells; host or cells: HEK-293
T2 sequence (P48546 22-466): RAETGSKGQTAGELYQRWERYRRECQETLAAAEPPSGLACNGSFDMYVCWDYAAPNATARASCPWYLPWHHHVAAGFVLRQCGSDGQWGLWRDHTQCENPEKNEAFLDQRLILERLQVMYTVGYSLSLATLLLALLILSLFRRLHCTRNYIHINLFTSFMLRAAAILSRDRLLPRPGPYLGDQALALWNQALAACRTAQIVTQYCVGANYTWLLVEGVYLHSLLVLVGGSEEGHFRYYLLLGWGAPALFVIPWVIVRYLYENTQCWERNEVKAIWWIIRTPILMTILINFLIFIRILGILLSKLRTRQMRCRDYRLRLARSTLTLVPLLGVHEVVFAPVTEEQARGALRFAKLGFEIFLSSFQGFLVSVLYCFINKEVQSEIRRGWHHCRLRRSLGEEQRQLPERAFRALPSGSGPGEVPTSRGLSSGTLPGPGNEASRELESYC
Procedure: as §1

[4] = Subchronic effect on body weight in female diet-induced obese (DIO) C57BL/6NCrl mice (method 2); type: in vivo; settings: 3 weeks; for Overall weight change: mean ± SEM
Procedure: Female C57BL/6NCrl mice were housed in groups in a specific pathogen-free barrier facility on a 12 h light/dark cycle with free access to water and high-fat diet. After 14 weeks on high-fat diet, mice were stratified to treatment groups (n=8), so that each group had similar mean body weight.
An aged-matched group with ad libitum access to standard chow and water was included as standard control group.
Before the experiment, mice were subcutaneously (s.c.) injected with vehicle solution and weighed for 3 days to acclimate them to the procedures.
Body weight was recorded daily.
Statistical analyses were performed with Everstat 6.0 by repeated measures two-way ANOVA and Dunnett's post-hoc analyses (glucose profile) and 1-way-ANOVA, followed by Dunnett's post-hoc test (body weight, body fat). Differences versus vehicle-treated DIO control mice were considered statistically significant at the p<0.05 level.

Molecule `CCCCCCCCCCCCCCCCCC(=O)N[C@@H](CCC(=O)NCCCC[C@H](NC(=O)[C@H](CCC(N)=O)NC(=O)[C@@H](NC(=O)[C@H](CO)NC(=O)[C@H](CC(C)C)NC(=O)[C@H](CC(=O)O)NC(=O)[C@H](CO)NC(=O)[C@@H](NC(=O)[C@H](Cc1ccccc1)NC(=O)[C@@H](NC(=O)CNC(=O)[C@H](CCC(=O)O)NC(=O)C(C)(C)NC(=O)[C@@H](N)Cc1ccc(O)cc1)[C@@H](C)O)[C@@H](C)O)[C@@H](C)CC)C(=O)N[C@@H](CCC(=O)O)C(=O)N[C@@H](CCC(=O)O)C(=O)N[C@@H](CCC(=O)O)C(=O)N[C@@H](C)C(=O)N[C@H](C(=O)N[C@@H](CCCNC(=N)N)C(=O)N[C@@H](CC(C)C)C(=O)N[C@@H](Cc1ccccc1)C(=O)N[C@H](C(=O)N[C@@H](CCC(=O)O)C(=O)N[C@@H](Cc1c[nH]c2ccccc12)C(=O)N[C@@H](CC(C)C)C(=O)N[C@@H](CCCCN)C(=O)N[C@@H](C)C(=O)NCC(=O)NCC(=O)N1CCC[C@H]1C(=O)N[C@@H](CO)C(=O)N[C@@H](CO)C(=O)NCC(=O)N[C@@H](C)C(=O)N1CCC[C@H]1C(=O)N1CCC[C@H]1C(=O)N1CCC[C@H]1C(=O)N[C@@H](CO)C(N)=O)[C@@H](C)CC)C(C)C)C(=O)O` [SEQ ID NO: 10, Y-Aib-E-G-T-F-T-S-D-L-S-I-Q-K(γE-x70)-EEEAVRLFIEWLKAGGPSSGAPPPS-NH2] (H-Y[Aib]EGTFTSDLSIQK([γGlu-Stearoyl])EEEAVRLFIEWLKAGGPSSGAPPPS-NH2) has an EC50 [1] greater than 1000 nM, a metabolised at 2 h, 2 μM (trypsin) of 33% and a Cmax (in vivo) of 588 ng/mL. The half-life (in vivo) was 20.1 h, the metabolised at 2 h, 2 μM (α-chymotrypsin) was 48% and the metabolised at 2 h, 2 μM (neprilysin) was 0%. The metabolised at 2 h, 2 μM (plasmin) was 0%, the solubility at 2 h ([2]; pH 4.5, read-out: Solubility (pH 4.5)) was 120 µg/mL (≈ 26.3 µM) and the solubility at 2 h ([2]; pH 7.4, read-out: Solubility (pH 7.4)) was greater than 1000 µg/mL. For the same molecule, the “reduction of feed intake after 22 hours” value (female NMRI-mice; 3 μg/kg s.c., not significant, p=0.78) was 19%, the “reduction of feed intake after 22 hours” value (female NMRI-mice; 10 μg/kg s.c., p=0.049) was 34% and the EC50 [3] was 0.0067 nM. The “decrease of body weight, relative change from baseline” value ([4]; 3 μg/kg s.c. once daily) was 8.6%, the Overall weight change ([4]; 3 μg/kg s.c. once daily) was -3.6 ± 1.0 g and the “decrease of body weight, relative change from baseline” value ([4]; 10 μg/kg s.c. once daily) was 14.3%. For the same molecule, the Overall weight change ([4]; 10 μg/kg s.c. once daily) was -5.5 ± 0.8 g.
